According to patent US20110319484A1, “NEUROPROTECTIVE COMPOUNDS” (Parque Tecnologico de Ciencias de la Salud, priority 2009, published 2011):
Where a SMILES comes first, the peptide text is derived from it. The star is where a group is joined. Cbz = O=C(OCc1ccccc1)*; CH2F = FC*

Legend:
[1] = system: human neuroblastoma SK-N-MC cells; assay: Inhibition of ROS production induced by xanthine/xanthine oxidase (H2DCFDA probe, LDH-normalized); assay type: cell-based; settings: XXO 10 μM-100 mU/ml, AA 100 μM, positive control
Experimental: The assay was performed on human neuroblastoma SK-N-MC cells in culture from the American Type Culture Collection (ATCC) (HTB-10), in all cases strict rules of sterility were followed and the manipulation was performed in class II biological safety cabinets following European standard EN 12469. The cells were maintained in Minimum Essential Medium Eagle (MEM) culture medium supplemented with 1 mM sodium pyruvate, 2 mM L-glutamine, 0.1 mM non-essential amino acids, 0.05 mg/ml gentamicin and 10% fetal bovine serum.
The inhibition by the NST0003 compound [(1S,3R,7S,8S,8aR)-1,2,3,7,8,8a-hexahydro-3,7-dimethyl-8-[2-[(2R,4R)-tetrahydro-4-hydroxy-6-oxo-2H-pyran-2-yl]ethyl-1-naphthalenyl propanoate] on the production of reactive oxygen species (ROS) in the SK-N-MC cells, was analyzed. […]
The cells were incubated (at 37° C. and 5% CO2) with these treatments for 3 h, after which time they were washed with HKRB buffer (20 mM HEPES, 103 mM NaCl, 4.77 mM KCl, 0.5 mM CaCl2, 1.2 mM MgCl2, 1.2 mM KH2PO4, 25 mM […], 15 mM glucose; at pH 7.3) after which the 2′,7′-dichlorodihydrofluorescein diacetate (H2DCFDA) probe was added at 30 μM diluted in HKRB buffer and it was incubated for another 2 hours in the same conditions. The reading of the plate was taken in a fluorometer at the conditions of 485 nm for excitation and 538 nm for emission. […]

[2] = system: caspase 3/7 activation in SK-N-MC cells; assay: Inhibition of camptothecin-induced caspase 3/7 activation (Apo-ONE kit); assay type: cell-based, human; settings: camptothecin 50 μM, 6 h, Z-VAD-fmk 50 μM
Experimental: To that end, the inhibition caused by (1S,3R,7S,8S,8aR)-1,2,3,7,8,8a-hexahydro-3,7-dimethyl-8-[2-[(2R,4R)-tetrahydro-4-hydroxy-6-oxo-2H-pyran-2-yl]ethyl-1-naphthalenyl 2,2-dimethylpropanoate (NST0005) of apoptosis caused by the treatment with camptothecin (Campt) on the SK-N-MC cells in culture was analyzed following the working conditions specified in section 3.1. Apoptosis can be quantified by measuring effector caspase activation. Caspases (proteins belonging to the cysteine-protease group) mediate the cleavage of a series of proteins triggering the signaling cascade which leads cells to apoptosis. […] The active cellular caspases 3 or 7 cause the cleavage of the substrate, emitting fluorescence which is read by means of a fluorometer.
The effect of the pretreatment of the NST0005 compound at 40 and 100 μg/ml on caspase 3/7 activation caused by 50 μM of camptothecin (Campt) in the SK-N-MC cells was thus analyzed. […]
The cells were incubated (at 37° C. and 5% CO2) with these treatments for 6 h, after which time the lysis buffer and the substrate rhodamine 110 were added at the concentrations specified by the manufacturer; they were incubated at room temperature for 30 minutes and the cells were then frozen at −20° C. overnight. They were thawed the next day and the reading of the plate was taken in a fluorometer at 499 nm for excitation and 521 nm for emission.

SK-N-MC cells = assay: Inhibition of camptothecin-induced apoptosis by flow cytometry (propidium iodide, sub-G1); assay type: cell-based, human; settings: camptothecin 50 μM, 6 h, Z-VAD-fmk 50 μM
Experimental: To that end, the inhibition caused by the NST0005 compound of apoptosis caused by the treatment with camptothecin (Campt) was analyzed. The SK-N-MC cells, not exceeding 15 passages, were seeded on 6-well plates treated for adherent cells with a cell concentration of 8×10^5 cells/well; 2 wells of the plate were seeded for each condition of the assay.
After 24 h of cell incubation at 37° C. and 5% CO2 the cell treatments were performed with 2 ml of total volume for the following conditions: (i), control (culture medium); (ii), camptothecin [50 μM]; (iii) camptothecin [50 μM] and Z-VAD-fmk [50 μM] (Alexis), as positive control of inhibition; and (iv), 50 μM camptothecin with NST0005 at different concentrations [4, 10, 40 and 100 μg/ml].
The cells were incubated (at 37° C. and 5% CO2) with these treatments for 6 h, after which time they were pooled together with their culture medium and centrifuged at 300×g for 5 minutes. The medium was removed, a washing was performed with phosphate buffered saline (PBS) and they were fixed for 2 minutes with 500 μl of 70% ethanol at −20° C. […] After this time, they were analyzed by flow cytometry, comparing the fluorescence of the propidium iodine against the amount of DNA. The percentage of apoptosis was measured on the sub-G1 region of each of the conditions. […]

## O=C1O[C@H]([C@@H](O)CO)C(O)=C1O [AA, ascorbic acid, reference compound]
[1]
  inhibition at 100 µM: 80%

## COC(=O)C[C@H](NC(=O)[C@H](C)NC(=O)[C@@H](NC(=O)OCc1ccccc1)C(C)C)C(=O)CF [Z-VAD-fmk, reference compound] (Cbz-Val-Ala-Asp(OMe)-CH2F)
[2]
  inhibition of caspase 3/7 activation: completely inhibited
SK-N-MC cells
  inhibition of apoptosis caused by camptothecin (flow cytometry): 30%
